Results taken from patent US12065443B2, “Compounds and pharmaceutical compositions thereof for the treatment of diseases” (priority 2017, dated 2024).

What was measured:
[1] = system: LPS-induced TNFα secretion in monocyte-derived macrophages (MdM); experiment: MdM assay: LPS-triggered TNFα (ELISA); assay type: cell-based, human; conditions: Homo sapiens, Macrophage, LPS-triggered TNFα inhibition
Outline: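 TNFα ELISA read on supernatants harvested 20 h after LPS (final 200 ng/mL) stimulation. Cells were day-10 macrophages derived from human blood CD14+ monocytes, exposed to 3-fold compound dilutions for 1 h at 37 °C beforehand, with DMSO held at 0.2%.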

SIK2 = target: T1, SIK2 (Homo sapiens, UniProt Q9H0K1); experiment: biochemical; conditions: 33P radioactive SIK kinase assay, AMARA peptide, 10 μM ATP
T1 construct: purchased ThermoFisher Scientific PV4792
T1 sequence (Q9H0K1 whole entry): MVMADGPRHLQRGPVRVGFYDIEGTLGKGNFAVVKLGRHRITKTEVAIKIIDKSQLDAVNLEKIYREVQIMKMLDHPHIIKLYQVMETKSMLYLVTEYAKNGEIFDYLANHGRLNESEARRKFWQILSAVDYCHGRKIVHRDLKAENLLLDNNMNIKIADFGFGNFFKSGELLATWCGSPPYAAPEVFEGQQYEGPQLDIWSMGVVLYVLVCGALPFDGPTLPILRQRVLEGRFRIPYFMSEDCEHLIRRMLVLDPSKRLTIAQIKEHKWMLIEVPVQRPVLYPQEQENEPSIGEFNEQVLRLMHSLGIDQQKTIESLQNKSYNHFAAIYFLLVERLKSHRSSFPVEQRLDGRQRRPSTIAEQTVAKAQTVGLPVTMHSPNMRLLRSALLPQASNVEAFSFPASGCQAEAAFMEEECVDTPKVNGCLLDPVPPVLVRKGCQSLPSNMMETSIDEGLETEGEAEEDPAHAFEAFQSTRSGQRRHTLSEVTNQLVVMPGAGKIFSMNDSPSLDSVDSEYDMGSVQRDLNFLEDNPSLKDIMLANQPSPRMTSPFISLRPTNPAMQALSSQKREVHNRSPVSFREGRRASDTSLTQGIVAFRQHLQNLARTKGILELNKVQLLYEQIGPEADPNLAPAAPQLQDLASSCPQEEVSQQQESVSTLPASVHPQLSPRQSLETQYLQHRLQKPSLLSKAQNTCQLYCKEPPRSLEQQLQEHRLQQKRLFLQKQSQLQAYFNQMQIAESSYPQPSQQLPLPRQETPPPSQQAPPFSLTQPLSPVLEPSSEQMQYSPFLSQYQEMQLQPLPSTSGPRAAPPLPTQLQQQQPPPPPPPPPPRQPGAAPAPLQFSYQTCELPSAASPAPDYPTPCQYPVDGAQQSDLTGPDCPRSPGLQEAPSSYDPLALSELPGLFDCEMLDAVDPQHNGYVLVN
Outline: (§1)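 Read-out: ^33P incorporated into AMARA peptide, counted on filter plates, taken as kinase activity. Reactions start on addition of labeled/unlabeled ATP to enzyme plus substrate and end with phosphoric acid. Controls: 1% DMSO (negative) and 10 μM staurosporine (positive), final.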

SIK3 = target: T2, SIK3 (Homo sapiens, UniProt Q9Y2K2); experiment: biochemical
T2 construct: purchased SignalChem S12-11G-100
T2 sequence (Q9Y2K2 whole entry): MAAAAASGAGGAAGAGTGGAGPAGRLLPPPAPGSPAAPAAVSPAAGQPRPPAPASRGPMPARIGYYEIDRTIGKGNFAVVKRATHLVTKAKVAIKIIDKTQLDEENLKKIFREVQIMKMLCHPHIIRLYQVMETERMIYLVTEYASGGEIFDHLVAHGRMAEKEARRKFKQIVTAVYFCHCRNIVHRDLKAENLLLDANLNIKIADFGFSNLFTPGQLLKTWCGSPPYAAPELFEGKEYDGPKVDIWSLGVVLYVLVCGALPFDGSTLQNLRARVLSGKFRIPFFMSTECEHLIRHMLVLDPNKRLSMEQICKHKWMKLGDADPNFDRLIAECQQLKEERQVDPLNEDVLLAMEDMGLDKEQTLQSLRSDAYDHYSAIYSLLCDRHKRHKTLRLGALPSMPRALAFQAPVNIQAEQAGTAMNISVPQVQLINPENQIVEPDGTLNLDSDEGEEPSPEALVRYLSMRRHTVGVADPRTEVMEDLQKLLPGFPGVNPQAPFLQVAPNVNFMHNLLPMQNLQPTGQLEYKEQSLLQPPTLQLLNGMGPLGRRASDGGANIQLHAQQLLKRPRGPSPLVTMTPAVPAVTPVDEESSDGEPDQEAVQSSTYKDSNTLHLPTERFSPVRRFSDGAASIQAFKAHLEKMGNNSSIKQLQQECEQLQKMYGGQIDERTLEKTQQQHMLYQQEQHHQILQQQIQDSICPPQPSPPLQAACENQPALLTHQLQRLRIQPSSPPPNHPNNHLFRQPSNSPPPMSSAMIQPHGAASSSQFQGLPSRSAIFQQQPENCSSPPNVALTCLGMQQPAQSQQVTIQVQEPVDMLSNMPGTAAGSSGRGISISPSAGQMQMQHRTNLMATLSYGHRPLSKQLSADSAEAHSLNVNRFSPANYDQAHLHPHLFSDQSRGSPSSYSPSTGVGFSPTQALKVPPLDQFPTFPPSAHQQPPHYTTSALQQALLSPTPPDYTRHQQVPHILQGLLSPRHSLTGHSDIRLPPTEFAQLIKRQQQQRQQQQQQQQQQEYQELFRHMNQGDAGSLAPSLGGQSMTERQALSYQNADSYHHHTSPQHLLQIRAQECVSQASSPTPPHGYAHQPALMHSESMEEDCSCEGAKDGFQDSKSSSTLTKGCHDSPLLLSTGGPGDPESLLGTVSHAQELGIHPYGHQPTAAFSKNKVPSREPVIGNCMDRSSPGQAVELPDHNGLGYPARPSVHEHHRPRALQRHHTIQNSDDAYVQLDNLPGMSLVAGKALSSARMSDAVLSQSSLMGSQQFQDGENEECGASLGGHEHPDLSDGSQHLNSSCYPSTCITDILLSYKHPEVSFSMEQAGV
Outline: as §1

SIK1 = target: T3, SIK1 (Homo sapiens, UniProt P57059); experiment: biochemical; conditions: 33P radioactive SIK kinase assay, AMARA peptide, 10 μM ATP; read-out: SIK1 IC50
T3 construct: purchased Carna Biosciences 02-131
T3 sequence (P57059 whole entry): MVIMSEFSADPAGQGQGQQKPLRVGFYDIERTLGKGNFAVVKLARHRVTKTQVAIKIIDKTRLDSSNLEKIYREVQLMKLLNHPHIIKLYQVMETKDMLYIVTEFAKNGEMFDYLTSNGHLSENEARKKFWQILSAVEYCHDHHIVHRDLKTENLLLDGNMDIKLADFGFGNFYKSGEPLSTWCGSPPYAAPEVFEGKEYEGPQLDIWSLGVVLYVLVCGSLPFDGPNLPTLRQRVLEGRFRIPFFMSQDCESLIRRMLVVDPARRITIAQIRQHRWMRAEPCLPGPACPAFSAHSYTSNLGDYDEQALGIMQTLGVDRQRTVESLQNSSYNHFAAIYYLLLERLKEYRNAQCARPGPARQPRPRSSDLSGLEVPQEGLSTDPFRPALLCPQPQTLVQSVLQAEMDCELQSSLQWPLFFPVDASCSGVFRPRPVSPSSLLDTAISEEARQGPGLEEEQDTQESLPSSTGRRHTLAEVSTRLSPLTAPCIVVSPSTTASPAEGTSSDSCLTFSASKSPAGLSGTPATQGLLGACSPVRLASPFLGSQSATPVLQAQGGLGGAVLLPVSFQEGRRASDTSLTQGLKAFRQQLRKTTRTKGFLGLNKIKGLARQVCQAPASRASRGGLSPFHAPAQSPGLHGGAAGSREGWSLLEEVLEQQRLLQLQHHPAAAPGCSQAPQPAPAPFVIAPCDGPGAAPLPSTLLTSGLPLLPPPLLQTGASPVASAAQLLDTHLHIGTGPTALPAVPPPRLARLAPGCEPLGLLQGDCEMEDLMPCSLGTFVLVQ
Outline: as §1

[2] = system: LPS triggered IL-10 secretion in monocyte-derived macrophages (MdM); experiment: MdM assay: LPS-triggered IL-10 (ELISA); assay type: cell-based, human; conditions: maximal fold change vs LPS only, median across assays
Protocol: This assay evaluates illustrative compounds of the invention for their inhibition of LPS-induced TNFα and LPS triggered IL-10 secretion in monocyte-derived macrophages.
PBMCs are isolated from human blood samples (buffycoats). The buffy coat is aseptically transferred into a 50 mL Falcon tube, and diluted 1/2 in PBS. Falcon tubes are filled with 20 mL Lymphoprep™, on top of which 25 mL of the buffy coat is carefully added, tubes are centrifuged for 35 min at 400 g in temperature controlled centrifuge, without brake, at 25° C. PBMCs are aspirated from the white interface layer between sample and Lymphoprep™. PBMCs are washed five times in PBS.
PBMCs are centrifuged at 300×g for 10 min and resuspended at a density of 1.0E07 cells/80 μL Miltenyi buffer (PBS, pH 7.4, 1% FBS, 2 mM EDTA).
Starting from this point of the protocol all steps are performed on ice. 20 μL of CD14+ micro-beads are added per 1.0E07 cells, the tube is mixed and incubated for 15 min in the fridge at 4° C. Cell suspension volume is adjusted to total volume of 100 mL using Miltenyi buffer, mixed gently and subsequently centrifuged for 10 min at 300× g. Supernantant is discarded and cell pellet is resuspended in 12 mL of Miltenyi buffer.
Four LS columns are placed in the MACS Separator (magnet) from Miltenyi Biotec, and are prewet by rinsing with 3 mL of MACS buffer per column. Three mL of cell suspension is added onto the column (max 1*10^8 of labelled cells/column), and columns are subsequently washed 3 times with 3 mL of Miltenyi buffer.
The columns are removed from the magnets, and 5 mL of Miltenyi buffer are added to the column to flush out the CD14+ fraction by pushing the plunger into the column. The flushed fractions are collected in a fresh 50 mL Falcon and volume is adjusted to 30 mL using Miltenyi buffer, cells are centrifuged for 10 min at 300× g. The obtained cell pellet is resuspended in 10 mL RPMI w/o FBS, and cell density is determined using a hematologic analyser (Sysmex XS-500i).
On day 10, MdMs are triggered and compound is added.
A compound dilution plate is made in 100% DMSO by 3-fold dilution of 10 mM stock solution. An intermediate dilution plate (10× final concentration) is made by diluting the compound dilution plate 50-fold in RPMI medium.
Medium is carefully removed from cell plates using multichannel pipette, and replaced by 80 μL fresh medium. 10 μL of the 10× final concentration compound is added to the cells and incubated for 1 hour at 37° C. before addition of trigger. No trigger conditions/trigger conditions are spiked with equal final DMSO concentrations of 0.2% DMSO. 10 μL of 10×LPS (final conc. 200 ng/mL) solution are added to all wells except for the ‘no trigger wells’ where 10 μL medium is added. Supernatant is collected after 2 h (IL-10 determination) and after 20 h (TNFα determination) of LPS triggering.
Plates are washed three times with PBST, where after 100 μL of Strep-HRP conjugate (0.5 μg/mL final concentration diluted in dilution buffer) is added. Plates are incubated in the dark, at 37° C. for 30 min. Plates are washed three times with PBST. […] 100 μL of substrate solution is added to each well and incubated until brilliant blue color develops. The reaction is stopped by adding 50 μL of 1 M H2SO4, after which absorbance is measured at 450 nm on the SpectraMax i3, Molecular Devices.
To quantify these inductions fold changes (FC) compared to ‘LPS only’ are calculated for each concentration tested and the maximal FC is calculated (IL-10 FCmax):
[formula] wherein ABS=Absorbance measured at 450 nm.
The median maximal FC for test compounds across two or more assays is reported (IL-10FCmax median).

CCn1cc(-c2cnc3c(c2)ncn3-c2cc(OC)c(C(=O)NCC(F)(F)F)c(OC)c2)cn1 [Cpd 29, 4-[6-(1-ethylpyrazol-4-yl)imidazo[4,5-b]pyridin-3-yl]-2,6-dimethoxy-N-(2,2,2-trifluoroethyl)benzamide]
EC50 [1]: 100 to 1000 nM
IC50 (SIK2): 10 to 100 nM
IC50 (SIK3): 10 to 100 nM
IC50 (SIK1): 10 to 100 nM
IL-10 FCmax median [2]: ++ (>1.5-4.5)

COc1cc(-n2cnc3cc(-c4cnn(C5CCN(C)CC5)c4)ccc32)cc(OC)c1C(=O)NCC(F)(F)F [Cpd 46, 2,6-dimethoxy-4-[5-[1-(1-methyl-4-piperidyl)pyrazol-4-yl]benzimidazol-1-yl]-N-(2,2,2-trifluoroethyl)benzamide]
EC50 [1]: 0.1 to 100 nM
IC50 (SIK2): 0.01 to 10 nM
IC50 (SIK3): 0.01 to 10 nM
IC50 (SIK1): 0.01 to 10 nM
IL-10 FCmax median [2]: ++ (>1.5-4.5)

COc1cc(-n2cnc3cc(-c4cnoc4)ccc32)cc(OC)c1C(=O)NCC(F)(F)F [Cpd 51, 4-(5-isoxazol-4-ylbenzimidazol-1-yl)-2,6-dimethoxy-N-(2,2,2-trifluoroethyl)benzamide]
EC50 [1]: 100 to 1000 nM
IC50 (SIK2): 10 to 100 nM
IC50 (SIK3): 10 to 100 nM
IC50 (SIK1): 10 to 100 nM
IL-10 FCmax median [2]: ++ (>1.5-4.5)

COc1cc(-n2cnc3cc(-c4cnn(C)c4)ccc32)cc(OC(F)F)c1C(=O)NC1CC1 [Cpd 53, N-cyclopropyl-2-(difluoromethoxy)-6-methoxy-4-[5-(1-methylpyrazol-4-yl)benzimidazol-1-yl]benzamide]
IL-10 FCmax median [2]: ++ (>1.5-4.5)

COc1cc(-n2cnc3cc(-c4cnn(C)c4)ccc32)cc(OC)c1C(=O)NC1CC1 [Cpd 86, N-cyclopropyl-2,6-dimethoxy-4-[5-(1-methylpyrazol-4-yl)benzimidazol-1-yl]benzamide]
EC50 [1]: 0.1 to 100 nM
IC50 (SIK2): 0.01 to 10 nM
IC50 (SIK3): 0.01 to 10 nM
IC50 (SIK1): 10 to 100 nM
IL-10 FCmax median [2]: ++ (>1.5-4.5)

COc1cc(-c2cnc3cc(-c4cnn(C)c4)ccn23)cc(C)c1C(=O)NCC(F)(F)F [Cpd 206, 2-methoxy-6-methyl-4-[7-(1-methylpyrazol-4-yl)imidazo[1,2-a]pyridin-3-yl]-N-(2,2,2-trifluoroethyl)benzamide]
EC50 [1]: 100 to 1000 nM
IC50 (SIK2): 10 to 100 nM
IC50 (SIK3): 10 to 100 nM
IC50 (SIK1): 10 to 100 nM
IL-10 FCmax median [2]: +++ (>4.5)

COc1cc(-c2cnc3cc(-c4cnn(CC(=O)O)c4)ccn23)cc(OC)c1C(=O)NCC(F)(F)F [Cpd 228, 2-[4-[3-[3,5-dimethoxy-4-(2,2,2-trifluoroethyl-carbamoyl)phenyl]imidazo[1,2-a]pyridin-7-yl]pyrazol-1-yl]acetic acid]
EC50 [1]: > 5000 nM
IC50 (SIK2): 0.01 to 10 nM
IC50 (SIK3): 0.01 to 10 nM
IC50 (SIK1): 0.01 to 10 nM
IL-10 FCmax median [2]: ++ (>1.5-4.5)

CCNC(=O)c1c(OC)cc(-n2cnc3cc(-c4ccc(N5CCOCC5)nc4)ccc32)cc1OC [compound 3, N-ethyl-2,6-dimethoxy-4-[5-(6-morpholino-3-pyridyl)benzimidazol-1-yl]benzamide]
EC50 [1]: 100 to 1000 nM
IC50 (SIK2): 10 to 100 nM
IC50 (SIK3): 10 to 100 nM
IC50 (SIK1): 10 to 100 nM
IL-10 FCmax median [2]: ++ (>1.5-4.5)

CCNC(=O)c1c(OC)cc(-n2cnc3cc(-c4cnn(CCN5CCOCC5)c4)ccc32)cc1OC [compound 4, N-ethyl-2,6-dimethoxy-4-[5-[1-(2-morpholinoethyl)pyrazol-4-yl]benzimidazol-1-yl]benzamide]
EC50 [1]: 1000 to 5000 nM
IC50 (SIK2): 10 to 100 nM
IC50 (SIK3): 10 to 100 nM
IC50 (SIK1): 10 to 100 nM
IL-10 FCmax median [2]: ++ (>1.5-4.5)

CCNC(=O)c1c(OC)cc(-c2cnn3cc(-c4cnn(CC)c4)cnc23)cc1OC [compound 9, N-ethyl-4-[6-(1-ethylpyrazol-4-yl)pyrazolo[1,5-a]pyrimidin-3-yl]-2,6-dimethoxy-benzamide]
EC50 [1]: 100 to 1000 nM
IC50 (SIK2): 10 to 100 nM
IC50 (SIK3): 10 to 100 nM
IC50 (SIK1): 10 to 100 nM
IL-10 FCmax median [2]: ++ (>1.5-4.5)

CCn1cc(-c2ccc3c(c2)ncn3-c2cc(OC)c(C(=O)NCCF)c(OC)c2)cn1 [compound 10, 4-[5-(1-ethylpyrazol-4-yl)benzimidazol-1-yl]-N-(2-fluoroethyl)-2,6-dimethoxy-benzamide]
EC50 [1]: 100 to 1000 nM
IC50 (SIK2): 0.01 to 10 nM
IC50 (SIK3): 0.01 to 10 nM
IC50 (SIK1): 10 to 100 nM
IL-10 FCmax median [2]: ++ (>1.5-4.5)

CCn1cc(-c2ccc3c(c2)ncn3-c2cc(OC)c(C(=O)NCC(F)F)c(OC)c2)cn1 [compound 11, N-(2,2-difluoroethyl)-4-[5-(1-ethylpyrazol-4-yl)benzimidazol-1-yl]-2,6-dimethoxy-benzamide]
EC50 [1]: 100 to 1000 nM
IC50 (SIK2): 0.01 to 10 nM
IC50 (SIK3): 0.01 to 10 nM
IC50 (SIK1): 10 to 100 nM
IL-10 FCmax median [2]: ++ (>1.5-4.5)

CCn1cc(-c2cnc3c(-c4cc(OC)c(C(=O)NCC(F)(F)F)c(OC)c4)cnn3c2)cn1 [compound 20, 4-[6-(1-ethylpyrazol-4-yl)pyrazolo[1,5-a]pyrimidin-3-yl]-2,6-dimethoxy-N-(2,2,2-trifluoroethyl)benzamide]
EC50 [1]: 100 to 1000 nM
IC50 (SIK2): 0.01 to 10 nM
IC50 (SIK3): 10 to 100 nM
IC50 (SIK1): 10 to 100 nM
IL-10 FCmax median [2]: ++ (>1.5-4.5)

CCCNC(=O)c1c(OC)cc(-n2cnc3cc(-c4cnn(CC)c4)ccc32)cc1OC [compound 22, 4-[5-(1-ethylpyrazol-4-yl)benzimidazol-1-yl]-2,6-dimethoxy-N-propyl-benzamide]
EC50 [1]: 100 to 1000 nM
IL-10 FCmax median [2]: ++ (>1.5-4.5)

COc1cc(-c2cnn3cc(-c4cnn(C)c4)cnc23)cc(OC)c1C(=O)NCC(F)F [compound 24, N-(2,2-difluoroethyl)-2,6-dimethoxy-4-[6-(1-methylpyrazol-4-yl)pyrazolo[1,5-a]pyrimidin-3-yl]benzamide]
EC50 [1]: 100 to 1000 nM
IC50 (SIK2): 0.01 to 10 nM
IC50 (SIK3): 10 to 100 nM
IC50 (SIK1): 10 to 100 nM
IL-10 FCmax median [2]: ++ (>1.5-4.5)

CCOc1cncc(-c2ccn3c(-c4cc(OC)c(C(=O)NCC(F)(F)F)c(OC)c4)cnc3c2)c1 [compound 248, 4-[7-(5-ethoxy-3-pyridyl)imidazo[1,2-a]pyridin-3-yl]-2,6-dimethoxy-N-(2,2,2-trifluoroethyl)benzamide]
EC50 [1]: 0.1 to 100 nM
IC50 (SIK2): 0.01 to 10 nM
IC50 (SIK3): 0.01 to 10 nM
IC50 (SIK1): 10 to 100 nM

COc1cc(-c2cnc3cc(-c4ccc(N5CCOCC5)nc4)ccn23)cc(OC)c1C(=O)NCC(F)(F)F [compound 251, 2,6-dimethoxy-4-[7-(6-morpholino-3-pyridyl)imidazo[1,2-a]pyridin-3-yl]-N-(2,2,2-trifluoroethyl)benzamide]
EC50 [1]: 0.1 to 100 nM
IC50 (SIK2): 0.01 to 10 nM
IC50 (SIK3): 0.01 to 10 nM
IC50 (SIK1): 0.01 to 10 nM
